Measured values published in PubChem BioAssay (NCI).
Several values for one entry are separate records, joined by “and”; a condition that tells them apart may be missing. Equal values may be shown once.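 Dose response: 5 concentrations. Exposure: 48 h. Format: 96-well plates. Endpoint: linear interpolation; highest concentration if not reached. GI50 is the concentration that inhibits growth by half. Definition used: TGI = concentration required for complete inhibition of growth.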

System: PC-3 prostate
Experiment: DTP human tumour cell line panel, 48 h

SMILES | GI50 | TGI
O=C(O)c1cccc(COc2ccc([N+](=O)[O-])cc2Cl)c1 | > 100 µM | > 100 µM
COC(=O)C1=COC(C)C2CN3CCc4c([nH]c5ccccc45)C3CC12 (centres undefined) | 24 µM and > 100 µM | 95.2 µM and > 100 µM
O=C(NCc1ccc(Cn2c(=O)sn(-c3ccccc3)c2=O)cc1)OCc1ccc2cccc(O)c2n1 | 0.826 µM | 2.42 µM
COC(c1ccc(C(C)(C)C)cc1)(c1ccc(C(C)(C)C)cc1)c1ccc(C(C)(C)C)cc1 |  | > 100 µM
CCC(C)(O)c1cnc(CC(C)C)c(=O)n1O (centres undefined) |  | > 100 µM
Nc1cc2c(cc1Br)[nH]c(=O)c1ccccc12 | 4.14 µM | > 100 µM
COc1ccc(-c2nccn2-c2ccc(OC)cc2)cc1 | 24.9 µM | > 100 µM
O=C(/C=C/c1ccccc1)c1ccccc1 |  | > 10 µM
COc1cc2c(/C=N\N=C(N)N)c[nH]c2cc1C | 14.3 µM | 27.4 µM
Cn1cc(-c2csc(-c3cn(CCCCN4CCCCC4)c4ccccc34)n2)c2cccnc21 | 1.61 µM | 3.03 µM
CC(C)[C@H](O)C(=O)N[C@@H](C)C(=O)N[C@@H]1C(=O)N(C)CCc2ccccc21 | > 100 µM | > 100 µM
C=CC(=O)N1CN(C(=O)C=C)CN(C(=O)C=C)C1 | 9.16 µM | 53.9 µM
COc1ccc(-c2cnnn2-c2nonc2-n2cccc2)cc1 | 0.331 µM | 31.9 µM
ClC(Cl)=C1C(=C(Cl)Cl)C(Cl)(Cl)C1(Cl)Cl |  | 5.08 µM
CO[C@H]1Nc2c(ccc(C)c2O)C(=O)N2C=C(/C=C/C(N)=O)C[C@@H]12 |  | 0.656 µM
COc1ccc(C(=O)c2cc(OC)c(OC)c(OC)c2)cc1OC |  | > 100 µM
O=C1c2ccccc2-c2c1c1ccccc1c(=O)n2CCN1CCNCC1 | 4.02 µM | 17.8 µM
CCCc1cc(=O)n2c(C(=O)Nc3ccc(Cl)cc3C)c(C(=O)Nc3ccc(F)cc3)sc2n1 | 2.07 µM | 11 µM
CN(C)CCNCCN |  | > 100 µM
COC(=O)c1cc2c(o1)-c1nccc3c1c(nc1ccccc13)C2=O | 3.41 µM | 29.6 µM
O=C(Nc1cc(Nc2ncccc2-c2ncnc3nc[nH]c23)ccc1F)c1cc(C(F)(F)F)cc(C(F)(F)F)c1 | 2.34 µM | 5.19 µM
COc1ccc(-c2nn(-c3cccc(Cl)c3)cc2-c2cc(-c3ccccc3)[nH]c(=O)c2C#N)cc1 | 6.01 µM | 41.6 µM
CC1CC(O)C(=O)C(O[C@@H]2C[C@@H]3CC[C@@H]4[C@H](CC[C@]5(C)C(C6=CC(=O)OC6)CC[C@]45O)[C@@]3(C=O)C[C@H]2O)O1 (some centres undefined) |  | < 0.0424 µM
CCCC(=O)C1=C(O)C(Cc2c(O)c(C)c(O)c(C(=O)CCC)c2O)=C(O)C(C)(C)C1=O |  | > 50 µM

System: SNB-19 CNS
Experiment: DTP human tumour cell line panel, 48 h

SMILES | GI50 [µM] | TGI [µM]
O=C(O)c1cccc(COc2ccc([N+](=O)[O-])cc2Cl)c1 | > 100 | > 100
COC(=O)C1=COC(C)C2CN3CCc4c([nH]c5ccccc45)C3CC12 (centres undefined) |  | > 100
O=C(NCc1ccc(Cn2c(=O)sn(-c3ccccc3)c2=O)cc1)OCc1ccc2cccc(O)c2n1 | 1.49 | 2.84
COC(c1ccc(C(C)(C)C)cc1)(c1ccc(C(C)(C)C)cc1)c1ccc(C(C)(C)C)cc1 |  | > 100
CCC(C)(O)c1cnc(CC(C)C)c(=O)n1O (centres undefined) |  | > 100
Nc1cc2c(cc1Br)[nH]c(=O)c1ccccc12 | 5.25 | 20.2
COc1ccc(-c2nccn2-c2ccc(OC)cc2)cc1 | 41.8 | > 100
O=C(/C=C/c1ccccc1)c1ccccc1 |  | > 10
COc1cc2c(/C=N\N=C(N)N)c[nH]c2cc1C | 19.2 | 54.5
Cn1cc(-c2csc(-c3cn(CCCCN4CCCCC4)c4ccccc34)n2)c2cccnc21 | 1.64 | 3.07
CC(C)[C@H](O)C(=O)N[C@@H](C)C(=O)N[C@@H]1C(=O)N(C)CCc2ccccc21 | > 100 | > 100
C=CC(=O)N1CN(C(=O)C=C)CN(C(=O)C=C)C1 | 33.1 | > 100
COc1ccc(-c2cnnn2-c2nonc2-n2cccc2)cc1 | 0.722 | > 100
ClC(Cl)=C1C(=C(Cl)Cl)C(Cl)(Cl)C1(Cl)Cl |  | 29
CO[C@H]1Nc2c(ccc(C)c2O)C(=O)N2C=C(/C=C/C(N)=O)C[C@@H]12 |  | > 58.2
O=C1c2ccccc2-c2c1c1ccccc1c(=O)n2CCN1CCNCC1 | 1.32 | 4.9
CCCc1cc(=O)n2c(C(=O)Nc3ccc(Cl)cc3C)c(C(=O)Nc3ccc(F)cc3)sc2n1 | 23.8 | 74.2
CN(C)CCNCCN |  | > 100
COC(=O)c1cc2c(o1)-c1nccc3c1c(nc1ccccc13)C2=O | 2.28 | 6.94
O=C(Nc1cc(Nc2ncccc2-c2ncnc3nc[nH]c23)ccc1F)c1cc(C(F)(F)F)cc(C(F)(F)F)c1 | 3.78 | > 10
COc1ccc(-c2nn(-c3cccc(Cl)c3)cc2-c2cc(-c3ccccc3)[nH]c(=O)c2C#N)cc1 | 2.76 | 38.6
CC1CC(O)C(=O)C(O[C@@H]2C[C@@H]3CC[C@@H]4[C@H](CC[C@]5(C)C(C6=CC(=O)OC6)CC[C@]45O)[C@@]3(C=O)C[C@H]2O)O1 (some centres undefined) |  | 0.0316
CCCC(=O)C1=C(O)C(Cc2c(O)c(C)c(O)c(C(=O)CCC)c2O)=C(O)C(C)(C)C1=O |  | > 50

System: COLO 205 colon
Experiment: DTP human tumour cell line panel, 48 h

SMILES | GI50 | TGI
O=C(O)c1cccc(COc2ccc([N+](=O)[O-])cc2Cl)c1 | > 100 µM | > 100 µM
COC(=O)C1=COC(C)C2CN3CCc4c([nH]c5ccccc45)C3CC12 (centres undefined) | 18.2 µM and > 100 µM | 36.4 µM and > 100 µM
O=C(NCc1ccc(Cn2c(=O)sn(-c3ccccc3)c2=O)cc1)OCc1ccc2cccc(O)c2n1 | 0.608 µM | 2.29 µM
COC(c1ccc(C(C)(C)C)cc1)(c1ccc(C(C)(C)C)cc1)c1ccc(C(C)(C)C)cc1 |  | > 100 µM
CCC(C)(O)c1cnc(CC(C)C)c(=O)n1O (centres undefined) |  | > 100 µM
Nc1cc2c(cc1Br)[nH]c(=O)c1ccccc12 | 3.34 µM | 
COc1ccc(-c2nccn2-c2ccc(OC)cc2)cc1 | 28.3 µM | > 100 µM
O=C(/C=C/c1ccccc1)c1ccccc1 |  | > 10 µM
COc1cc2c(/C=N\N=C(N)N)c[nH]c2cc1C | 17.3 µM | 35.1 µM
CC(C)[C@H](O)C(=O)N[C@@H](C)C(=O)N[C@@H]1C(=O)N(C)CCc2ccccc21 | > 100 µM | > 100 µM
C=CC(=O)N1CN(C(=O)C=C)CN(C(=O)C=C)C1 | 1.7 µM | 3.59 µM
COc1ccc(-c2cnnn2-c2nonc2-n2cccc2)cc1 | 0.235 µM | 0.787 µM
ClC(Cl)=C1C(=C(Cl)Cl)C(Cl)(Cl)C1(Cl)Cl |  | 10.8 µM
CO[C@H]1Nc2c(ccc(C)c2O)C(=O)N2C=C(/C=C/C(N)=O)C[C@@H]12 |  | 0.1 µM
O=C1c2ccccc2-c2c1c1ccccc1c(=O)n2CCN1CCNCC1 | 5.4 µM | 18.2 µM
CCCc1cc(=O)n2c(C(=O)Nc3ccc(Cl)cc3C)c(C(=O)Nc3ccc(F)cc3)sc2n1 | 16.9 µM | > 150 µM
CN(C)CCNCCN |  | > 100 µM
COC(=O)c1cc2c(o1)-c1nccc3c1c(nc1ccccc13)C2=O | 14.9 µM | 29.3 µM
O=C(Nc1cc(Nc2ncccc2-c2ncnc3nc[nH]c23)ccc1F)c1cc(C(F)(F)F)cc(C(F)(F)F)c1 | 0.39 µM | 2.2 µM
COc1ccc(-c2nn(-c3cccc(Cl)c3)cc2-c2cc(-c3ccccc3)[nH]c(=O)c2C#N)cc1 | 7.4 µM | > 50 µM
CC1CC(O)C(=O)C(O[C@@H]2C[C@@H]3CC[C@@H]4[C@H](CC[C@]5(C)C(C6=CC(=O)OC6)CC[C@]45O)[C@@]3(C=O)C[C@H]2O)O1 (some centres undefined) |  | 0.491 µM
CCCC(=O)C1=C(O)C(Cc2c(O)c(C)c(O)c(C(=O)CCC)c2O)=C(O)C(C)(C)C1=O |  | > 50 µM

System: RXF 393 renal
Experiment: DTP human tumour cell line panel, 48 h

SMILES | GI50 | TGI
COC(=O)C1=COC(C)C2CN3CCc4c([nH]c5ccccc45)C3CC12 (centres undefined) | 17300 nM and > 100000 nM | 69.9 µM and > 100 µM
O=C(NCc1ccc(Cn2c(=O)sn(-c3ccccc3)c2=O)cc1)OCc1ccc2cccc(O)c2n1 | 457 nM | 1.71 µM
CCC(C)(O)c1cnc(CC(C)C)c(=O)n1O (centres undefined) |  | > 100 µM
Nc1cc2c(cc1Br)[nH]c(=O)c1ccccc12 | 4300 nM | 21.7 µM
COc1ccc(-c2nccn2-c2ccc(OC)cc2)cc1 | 17900 nM | > 80.5 µM
O=C(/C=C/c1ccccc1)c1ccccc1 |  | > 10 µM
COc1cc2c(/C=N\N=C(N)N)c[nH]c2cc1C | 62100 nM | > 100 µM
Cn1cc(-c2csc(-c3cn(CCCCN4CCCCC4)c4ccccc34)n2)c2cccnc21 | 1480 nM | 2.99 µM
CC(C)[C@H](O)C(=O)N[C@@H](C)C(=O)N[C@@H]1C(=O)N(C)CCc2ccccc21 | > 100000 nM | > 100 µM
C=CC(=O)N1CN(C(=O)C=C)CN(C(=O)C=C)C1 | 1330 nM | 2.83 µM
COc1ccc(-c2cnnn2-c2nonc2-n2cccc2)cc1 | 138 nM | 0.609 µM
ClC(Cl)=C1C(=C(Cl)Cl)C(Cl)(Cl)C1(Cl)Cl |  | 3.26 µM
CO[C@H]1Nc2c(ccc(C)c2O)C(=O)N2C=C(/C=C/C(N)=O)C[C@@H]12 |  | 0.233 µM
COc1ccc(C(=O)c2cc(OC)c(OC)c(OC)c2)cc1OC |  | 6.3 µM
O=C1c2ccccc2-c2c1c1ccccc1c(=O)n2CCN1CCNCC1 | 4310 nM | 19.6 µM
CCCc1cc(=O)n2c(C(=O)Nc3ccc(Cl)cc3C)c(C(=O)Nc3ccc(F)cc3)sc2n1 | 1170 nM | 4.46 µM
O=C(Nc1cc(Nc2ncccc2-c2ncnc3nc[nH]c23)ccc1F)c1cc(C(F)(F)F)cc(C(F)(F)F)c1 | 1910 nM | 4.62 µM
COc1ccc(-c2nn(-c3cccc(Cl)c3)cc2-c2cc(-c3ccccc3)[nH]c(=O)c2C#N)cc1 | 897 nM | 2.18 µM
CC1CC(O)C(=O)C(O[C@@H]2C[C@@H]3CC[C@@H]4[C@H](CC[C@]5(C)C(C6=CC(=O)OC6)CC[C@]45O)[C@@]3(C=O)C[C@H]2O)O1 (some centres undefined) |  | 0.0506 µM
CCCC(=O)C1=C(O)C(Cc2c(O)c(C)c(O)c(C(=O)CCC)c2O)=C(O)C(C)(C)C1=O |  | > 50 µM

System: UACC-257 melanoma
Experiment: DTP human tumour cell line panel, 48 h

SMILES | GI50 | TGI [µM]
COC(=O)C1=COC(C)C2CN3CCc4c([nH]c5ccccc45)C3CC12 (centres undefined) | 34.2 µM and > 100 µM | > 100
O=C(NCc1ccc(Cn2c(=O)sn(-c3ccccc3)c2=O)cc1)OCc1ccc2cccc(O)c2n1 | 1.37 µM | 3.01
CCC(C)(O)c1cnc(CC(C)C)c(=O)n1O (centres undefined) |  | > 100
Nc1cc2c(cc1Br)[nH]c(=O)c1ccccc12 | 4.13 µM | 17.1
COc1ccc(-c2nccn2-c2ccc(OC)cc2)cc1 | 26 µM | > 88
O=C(/C=C/c1ccccc1)c1ccccc1 |  | > 10
COc1cc2c(/C=N\N=C(N)N)c[nH]c2cc1C | 36.8 µM | > 100
CC(C)[C@H](O)C(=O)N[C@@H](C)C(=O)N[C@@H]1C(=O)N(C)CCc2ccccc21 | > 100 µM | > 100
C=CC(=O)N1CN(C(=O)C=C)CN(C(=O)C=C)C1 | 1.82 µM | 4.59
COc1ccc(-c2cnnn2-c2nonc2-n2cccc2)cc1 | 0.373 µM | 35.1
ClC(Cl)=C1C(=C(Cl)Cl)C(Cl)(Cl)C1(Cl)Cl |  | 12.9
CO[C@H]1Nc2c(ccc(C)c2O)C(=O)N2C=C(/C=C/C(N)=O)C[C@@H]12 |  | 0.134
COc1ccc(C(=O)c2cc(OC)c(OC)c(OC)c2)cc1OC |  | > 100
O=C1c2ccccc2-c2c1c1ccccc1c(=O)n2CCN1CCNCC1 | 4.98 µM | 16.9
CCCc1cc(=O)n2c(C(=O)Nc3ccc(Cl)cc3C)c(C(=O)Nc3ccc(F)cc3)sc2n1 | 7.56 µM | 42.4
CN(C)CCNCCN |  | > 100
COC(=O)c1cc2c(o1)-c1nccc3c1c(nc1ccccc13)C2=O | 3.68 µM | 15.3
O=C(Nc1cc(Nc2ncccc2-c2ncnc3nc[nH]c23)ccc1F)c1cc(C(F)(F)F)cc(C(F)(F)F)c1 | 0.474 µM | > 10
